Measurements as given in article PMC4501059, “Responding to the challenge of untreatable gonorrhea: ETX0914, a first-in-class agent with a distinct mechanism-of-action against bacterial Type II topoisomerases” (Scientific Reports, 2015).
Converted amounts (≈) assume the structure as drawn. “And” between values parts separate entries of the source, which are not always exact repeats. Equal entries are not always repeated.

Tests used:
[1] = Quantitative whole-body autoradiography, tissue distribution of radioactivity; assay type: in vivo, male pigmented Lister Hood rat; details: rat plasma after iv infusion of 14C label
Method: Quantitative whole-body autoradiography. The distribution of radioactivity in male, pigmented Lister Hood rat tissues was obtained after a single intravenous infusion over 15 minutes of ^14C-AZD0914 at 25 mg/kg (51 μmol/kg, 5 MBq/kg) using quantitative whole-body autoradiography with phosphor-imaging technology. The potential of this compound and/or its metabolites to bind to melanin-containing tissues and/or to potentially bind covalently to tissues was also evaluated. The rats were sacrificed at 5 minutes, 1 hour, 4 hours, 24 hours, 48 hours, 7 days and 21 days after the end of infusion with enflurane (Efrane®, Abbott Laboratories, USA), and frozen in acetone, cooled to -70 °C with solid CO2. The 7- and 21- day animals could not be quantified as no trace of radioactivity was observed. After removal of limbs and tail, the carcass was embedded, with left lateral side uppermost, in a 2.5% (w/v) aqueous solution of caramellosum natricum and frozen for at least 10 minutes. The animal blocks were stored at -20 °C until sectioning. Sagittal whole-body sections (30 μm) were obtained to include organs and tissues of interest. At sectioning each block was mounted in a Leica CM3600 Cryomacrotome (Leica Microsystems GmbH, Germany) maintained at approximately -20 °C. All sections were dried at -20 °C for at least 1 day prior to exposure on phosphor-imaging plates. Together with two sets of calibration standards, the sections were placed on phosphor-imaging plates, which had been pre-covered with a thin plastic film. The imaging plates were exposed for 1 to 3 days at +4 to +12 °C, enclosed in light tight cassettes in a lead shielding box to protect from environmental radiation. Following exposure, the imaging plates were scanned at a pixel size of 50 μm using FLA-7000 (FujiFilm Sverige AB, Sweden). The tissues and organs of interest were quantified using AIDA 3.5 (Raytest, Germany). The quantification limit was defined as twice the background value of the imaging plate and varied between the plates from 0.23 to 0.33 nmol/g. The various tissues and organs were identified either on the autoradiograms or on the corresponding tissue sections.

hERG = hERG (Homo sapiens, UniProt Q12809); test: In vitro ion channel function
[2] = tested on: mammalian myeloid cell lines; test: myeloid cytotoxicity (growth inhibition); assay type: cell-based; details: read-out: Myeloid IC50
Method: (§1) In vitro toxicology. Experiments for assessing micronuclei in mouse lymphoma cells^19 myeloid cytotoxicity^20 and erythroid cytotoxicity^21 were performed as described previously.

[3] = plasma protein binding, mouse; details: in vitro at 1-50 µM
[4] = tested on: mammalian erythroid cell lines; test: erythroid cytotoxicity (growth inhibition); assay type: cell-based; details: read-out: Erythroid IC50
Method: as §1

[5] = tested on: N. gonorrhoeae ARC4676 (QR); assay type: cell-based
[6] = Human plasma protein binding (PPB); details: plasma
Moraxella catarrhalis = tested on: Moraxella catarrhalis; set-up: method as in ref 2 (supplement); details: 145 tested; ref 2 (supplement); cited from earlier work
Mycoplasma genitalium = tested on: Mycoplasma genitalium; set-up: method as in ref 3 (supplement); details: 11 tested; ref 3 (supplement); cited from earlier work
Chlamydia trachomatis = tested on: Chlamydia trachomatis; set-up: method as in ref 3 (supplement); details: 10 tested; ref 3 (supplement); cited from earlier work
[7] = 28 day oral toxicology study, rat; assay type: in vivo, Han Wistar rat; details: for NOAEL at 28 days: in vivo
Method: The following dosing formulation for rat and dog 28 day PO studies was used: a 100 mg/mL stock of ETX0914 in 5% dextrose and 2.5M meglumine adjusted to pH 9 using 5M HCl or 2.5M meglumine. The dosing formulations were diluted as required with phosphate buffered saline and dispensed daily. […] A control group of 10 male and 10 females were given the vehicle only. An additional 3 animals per sex were allocated to each group for toxicokinetics wherein blood samples (1 mL) from the tail vein pre-trial and on Day 27 were collected. […] Animals were terminated by exposure to CO2. The following were assessed: clinical observations, body weight, food consumption, body temperature, hematology, plasma chemistry, toxicokinetics and gross and microscopic pathology.

Haemophilus influenzae = tested on: Haemophilus influenzae; set-up: method as in ref 2 (supplement); details: 352 tested; ref 2 (supplement); cited from earlier work
[8] = 28 day oral toxicology study, dog; details: for Salient Pathology Findings: 1 month dog (po)
S. aureus Topo IV = S. aureus Topo IV (Staphylococcus aureus, UniProt P0C1S7+P0C1U9); test: S. aureus Topo IV cleaved complex ligation assay; assay type: biochemical; details: free Mg2+ 0.06 μM to 8 mM
[9] = CV dog telemetry (single dose, iv); details: for Cmax: plasma
[10] = hepatocyte intrinsic clearance; assay type: in vitro ADME; details: male, Han-Wister, rat hepatocytes
Source text: Supplement srep11827-s1.doc, table 4 | column: Han-Wister rat (male)

N. gonorrhoeae ATCC49226 = test: MIC (CLSI agar dilution); assay type: cell-based
[11] = both, beagle, dog, plasma, po, 100 mg/kg/day
[12] = both, beagle, dog, plasma, po, 200 mg/kg/day
[13] = both, beagle, dog, plasma, po, 500 mg/kg/day

## C[C@@H]1CN2c3c(cc4c(N5C(=O)OC[C@@H]5C)noc4c3F)CC3(C(=O)NC(=O)NC3=O)[C@H]2[C@H](C)O1 [ETX0914]
[1]
  share of circulating radioactivity in plasma accounted for by parent: ~ 90%
hERG; hERG IC50, K^+ rectifying current/QT interval
  IC50: 316 µM
hERG; ion channels including hERG, Cmax at highest 4000 mg Phase 1 dose
  margin of ion channel IC50 relative to Cmax: greater than 10 fold
[2]
  IC50: > 100 µM
[3]
  PPB (%free): 22.1 %free
[3]; listed as AZD0914
  PPB (%free): 22.1±0.3 %free
[4]
  IC50: > 100 µM
[5]
  MIC: N. gonorrhoeae ARC4676 (QR): 0.125 µg/mL (≈ 0.256 µM)
[6]
  fraction unbound: 0.17
Moraxella catarrhalis
  MIC90: 0.25^2 µg/ml
  MIC Range: 0.015 to 0.5 µg/mL
Mycoplasma genitalium
  MIC90: 1.0^3 µg/ml
  MIC Range: 0.5 to 1.0 µg/mL
Chlamydia trachomatis
  MIC90: 0.25^3 µg/ml
  MIC Range: 0.06 to 0.5 µg/mL
[7]; 1 month rat (po), 500 mg/kg/day
  Salient Pathology Findings: Reduced activity, pilo-erection, irregular respiration Seminal vesicle: secretory depletion, atrophy Epididymis: cellular debris (minimal) Spleen: increased congestion/haematopoiesis Cecum & rectum: mucosal hyperplasia
[7]; 1 month rat (po), 1000 mg/kg/day
  Salient Pathology Findings: As above & testes tubular degeneration partially reversible 3 months post dosing
[7]; both sexes, Han Wistar, blood, oral, rat, 200 mg/kg, day 27, read-out: AUC24h at NOAEL
  AUC(0-t): 1070 µg·h/mL
[7]; both sexes, Han Wistar, blood, oral, rat, 200 mg/kg, day 27, read-out: Cmax at NOAEL
  Cmax: 107 µg/mL
[7]; both sexes, Han Wistar, oral, rat, 28 days
  NOAEL at 28 days: 200 mg/kg
[7]; both sexes, Han Wistar, 1 month rat (po)
  NOAEL at 28 days: 200 mg/kg/day
[7]; both sexes, Han Wistar, plasma, 1 month rat (po), 200 mg/kg/day
  AUC: 1100 ± 130 µg·h/mL
[7]; both sexes, Han Wistar, plasma, 1 month rat (po), 200 mg/kg/day, read-out: Cmax (±SD)
  Cmax: 110 ± 30 µg/mL
[7]; both sexes, Han Wistar, plasma, 1 month rat (po), 500 mg/kg/day
  AUC: 2460 ± 470 µg·h/mL
[7]; both sexes, Han Wistar, plasma, 1 month rat (po), 500 mg/kg/day, read-out: Cmax (±SD)
  Cmax: 170 ± 30 µg/mL
[7]; both sexes, Han Wistar, plasma, 1 month rat (po), 1000 mg/kg/day
  AUC: 3820 ± 650 µg·h/mL
[7]; both sexes, Han Wistar, plasma, 1 month rat (po), 1000 mg/kg/day, read-out: Cmax (±SD)
  Cmax: 260 ± 55 µg/mL
[7]; both, Han Wistar, rat, plasma, oral, 200 mg/kg
  margin of fAUC at rat NOAEL to efficacious fAUC in mouse thigh model: 13 fold
[7]; rat
  haematology or platelet count at the NOAEL: no significant changes in haematology or platelet count
[7]; rat, oral, 28 days
  tolerated dose: up to 1000 mg/kg/day
Haemophilus influenzae
  MIC90: 0.5^2 µg/ml
  MIC Range: 0.03 to 2.0 µg/mL
[8]; 200 mg/kg/day
  Salient Pathology Findings: Testes tubular degeneration partially reversible 3 months post dosing
[8]; 500 mg/kg/day
  Salient Pathology Findings: As above plus: Epididymis cellular debris Caecum/illium/rectum necrosis
[8]; both, beagle, dog, in vivo, po
  NOAEL at 28 days: 100 mg/kg and 100 mg/kg/day
[8]; both, beagle, dog, in vivo, po, 100 mg/kg
  Cmax: 85 µg/mL
[8]; [11]
  AUC: 870 ± 240 µg·h/mL
  Cmax: 90 ± 22 µg/mL
[8]; [12]
  AUC: 2160 ± 460 µg·h/mL
  Cmax: 210 ± 18 µg/mL
[8]; [13]
  AUC: 2780 ± 1140 µg·h/mL
  Cmax: 220 ± 94 µg/mL
[8]; dog
  haematology or platelet count at the NOAEL: no significant changes in haematology or platelet count
[8]; dog, 500 mg/kg/day
  finding at highest dose tested: tachycardia was observed
[8]; dog, oral gavage, 28 days
  tolerated dose: 500 mg/kg/day
S. aureus Topo IV
  re-ligation of inhibitor-induced cleaved DNA on removal of Mg2+: No ligation is observed
[9]; CV dog telemetry, single dose, iv
  NOEL: 50 mg/kg/day
[9]; IV telemetry dog study, 100 mg/kg
  cardiovascular effects: decreases in blood pressure, contractility and PR interval and an increase in the heart rate
[9]; dog
  other ECG intervals: no changes to other ECG intervals including QTc or QRS
[9]; dog, iv, 50 mg/kg
  Cmax: 63 µg/mL
[9]; dog, iv, 100 mg/kg
  Cmax: 160 µg/mL
[9]; single dose iv, 100 mg/kg
  Salient Pathology Findings: Emesis Increase in cardiac contractility\relaxation and heart rate Decrease in systolic & diastoloic blood pressure Orthostatic hypertension
physchem
  solubility: 390 µM (≈ 190 µg/mL)
[10]
  hepatocyte CLint at 1 µM: 10 µL/min/1e6 cells
N. gonorrhoeae ATCC49226
  MIC: N. gonorrhoeae ATCC49226: 0.125 µg/mL (≈ 0.256 µM)
